Measured values as given in patent US20160108391A1, “REAGENT COMPOSITIONS HAVING PYRIDINE-CARBOXYLIC ACID-[…], AS WELL AS METHODS OF MAKING AND USING THE SAME” (Roche Diabetes Care, Inc., priority 2013, published 2016).

System: glucose dehydrogenase mutant 2
Conditions: cNAD instead of NAD, increasing amounts of nicotinic acid
Experimental: Methods: test elements with added nicotinic acid were prepared and analog to Example 1, but with adding coenzyme cNAD (see, Int'l Patent Application Publication No. WO 2007/012494) instead of NAD (same amount on molar basis).
Consequently, test elements were stored: (a) in open vials at 85% r.h. and 35° C., or (b) in closed vials with desiccant at 35° C.

O=C(O)c1cccnc1 [nicotinic acid, pyridine-3-carboxylic acid]
stabilizing effect on remaining enzymatic activity, dry conditions (closed vials with desiccant at 35° C., FIG. 3b): significant stabilizing effect | stabilizing effect on remaining enzymatic activity, humid conditions (open vials at 85% r.h. and 35° C., FIG. 3a): significant stabilizing effect
